Test results as given in ChEMBL document CHEMBL3286108, “Novel arylsulfonamide derivatives with 5-HT₆/5-HT₇ receptor antagonism targeting behavioral and psychological symptoms of dementia” (J Med Chem, 2014).
Each block holds one molecule with its values, some of them ahead of it. The source made the active and inactive calls. No cut-off for these calls is given here.

Experiments:
[1] = molecular target: Muscarinic acetylcholine receptor M5 (Homo sapiens, UniProt P08912); assay: Displacement of [3H]4-DAMP from human recombinant M5 receptor expressed in CHO cells; format: cell-based
Chain of Muscarinic acetylcholine receptor M5 (P08912 whole entry): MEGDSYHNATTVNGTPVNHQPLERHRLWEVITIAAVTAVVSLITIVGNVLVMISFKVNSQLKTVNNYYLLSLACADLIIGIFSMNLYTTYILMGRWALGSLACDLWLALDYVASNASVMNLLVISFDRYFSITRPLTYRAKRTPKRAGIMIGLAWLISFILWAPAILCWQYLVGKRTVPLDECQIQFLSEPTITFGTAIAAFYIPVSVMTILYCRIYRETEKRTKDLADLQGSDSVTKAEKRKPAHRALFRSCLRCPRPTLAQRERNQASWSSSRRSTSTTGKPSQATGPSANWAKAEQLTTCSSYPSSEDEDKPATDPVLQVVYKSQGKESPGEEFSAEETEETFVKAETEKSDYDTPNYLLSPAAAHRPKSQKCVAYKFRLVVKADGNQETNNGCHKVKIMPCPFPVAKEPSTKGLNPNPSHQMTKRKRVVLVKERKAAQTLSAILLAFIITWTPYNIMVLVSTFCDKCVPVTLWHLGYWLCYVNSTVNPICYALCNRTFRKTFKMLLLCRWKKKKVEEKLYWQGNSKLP

[2] = molecular target: T1, 5-hydroxytryptamine receptor 7 (Homo sapiens, UniProt P34969); assay: Antagonist activity at human 5-HT7 receptor expressed in CHO-K1 cells assessed as inhibition of serotonin-induced cAMP accumulation after 60 mins by TR-FRET immunoassay; format: functional, cell-based
T1 sequence (P34969 whole entry): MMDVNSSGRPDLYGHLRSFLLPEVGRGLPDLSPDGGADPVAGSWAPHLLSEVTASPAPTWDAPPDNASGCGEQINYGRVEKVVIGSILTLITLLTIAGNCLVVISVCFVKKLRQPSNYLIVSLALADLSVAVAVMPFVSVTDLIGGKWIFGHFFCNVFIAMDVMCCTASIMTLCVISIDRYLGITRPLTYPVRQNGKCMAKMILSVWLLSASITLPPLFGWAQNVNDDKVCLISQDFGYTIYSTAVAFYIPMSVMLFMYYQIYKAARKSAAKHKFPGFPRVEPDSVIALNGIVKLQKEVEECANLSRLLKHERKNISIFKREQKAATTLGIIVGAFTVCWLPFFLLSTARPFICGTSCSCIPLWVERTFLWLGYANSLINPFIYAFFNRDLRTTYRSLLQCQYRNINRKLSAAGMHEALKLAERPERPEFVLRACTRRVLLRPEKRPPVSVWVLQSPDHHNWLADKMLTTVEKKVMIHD

[3] = molecular target: T2, Muscarinic acetylcholine receptor M1 (Homo sapiens) (UniProt P11229); assay: Displacement of [3H]pirenzepine from human recombinant M1 receptor expressed in CHO cells at 1 uM; format: cell-based
T2 sequence (whole entry): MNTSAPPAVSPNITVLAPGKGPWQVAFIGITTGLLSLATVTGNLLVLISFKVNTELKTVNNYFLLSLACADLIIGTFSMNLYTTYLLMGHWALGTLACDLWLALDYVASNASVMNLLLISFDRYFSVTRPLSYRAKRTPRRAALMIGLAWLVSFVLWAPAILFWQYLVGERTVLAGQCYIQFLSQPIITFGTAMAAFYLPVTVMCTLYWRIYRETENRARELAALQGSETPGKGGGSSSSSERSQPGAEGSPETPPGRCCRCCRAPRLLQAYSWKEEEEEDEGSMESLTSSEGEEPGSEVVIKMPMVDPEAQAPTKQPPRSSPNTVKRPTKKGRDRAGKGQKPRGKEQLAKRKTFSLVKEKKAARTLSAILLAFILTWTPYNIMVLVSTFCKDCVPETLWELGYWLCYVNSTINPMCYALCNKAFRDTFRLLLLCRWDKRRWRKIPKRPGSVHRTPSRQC

[4] = molecular target: T3, 5-hydroxytryptamine receptor 2A (Homo sapiens, UniProt P28223); assay: biochemical; format: cell-based, CHO-K1
T3 sequence (P28223 whole entry): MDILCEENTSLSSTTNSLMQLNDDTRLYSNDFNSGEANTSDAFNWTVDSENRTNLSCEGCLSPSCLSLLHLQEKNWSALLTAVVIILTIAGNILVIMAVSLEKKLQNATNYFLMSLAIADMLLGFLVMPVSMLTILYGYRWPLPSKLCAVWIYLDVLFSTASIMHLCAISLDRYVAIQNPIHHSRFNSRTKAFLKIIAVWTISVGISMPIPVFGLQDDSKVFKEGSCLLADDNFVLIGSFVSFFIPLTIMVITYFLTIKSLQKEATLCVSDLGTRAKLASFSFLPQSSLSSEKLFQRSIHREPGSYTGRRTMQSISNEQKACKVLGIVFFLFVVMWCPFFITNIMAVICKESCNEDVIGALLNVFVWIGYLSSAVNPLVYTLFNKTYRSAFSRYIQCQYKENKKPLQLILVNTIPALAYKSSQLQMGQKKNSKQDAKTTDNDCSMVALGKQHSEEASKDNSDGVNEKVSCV

[5] = molecular target: T1, 5-hydroxytryptamine receptor 7; assay: Agonist activity at human 5-HT7 receptor expressed in CHO-K1 cells assessed as cAMP accumulation after 60 mins by TR-FRET immunoassay; format: functional, cell-based
[6] = molecular target: T3, 5-hydroxytryptamine receptor 2A; assay: Antagonist activity at human recombinant 5-HT2A receptor expressed in CHO-K1 cells assessed as inhibition of alpha-methyl serotonin-induced response treated 15 to 30 mins before agonist challenge by luminescence analysis; format: cell-based
D(2) dopamine receptor [7] = molecular target: T4, D(2) dopamine receptor (Homo sapiens, UniProt P14416); assay: Agonist activity at human recombinant D2 receptor expressed in CHO-K1 cells by luminescence analysis; format: cell-based
T4 sequence (P14416 whole entry): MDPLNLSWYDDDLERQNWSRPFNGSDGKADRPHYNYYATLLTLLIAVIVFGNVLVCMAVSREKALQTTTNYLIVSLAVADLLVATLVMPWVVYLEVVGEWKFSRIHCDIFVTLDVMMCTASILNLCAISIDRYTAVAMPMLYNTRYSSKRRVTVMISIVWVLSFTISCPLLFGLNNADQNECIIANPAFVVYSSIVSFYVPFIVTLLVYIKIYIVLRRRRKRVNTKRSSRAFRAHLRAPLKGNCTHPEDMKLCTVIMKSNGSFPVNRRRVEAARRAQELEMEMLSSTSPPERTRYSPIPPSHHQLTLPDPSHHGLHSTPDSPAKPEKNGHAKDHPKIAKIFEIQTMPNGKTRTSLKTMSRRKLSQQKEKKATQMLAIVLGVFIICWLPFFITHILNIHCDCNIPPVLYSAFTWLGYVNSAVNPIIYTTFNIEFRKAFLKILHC

[8] = molecular target: hERG (KCNH2) potassium channel (Homo sapiens, UniProt Q12809); assay: in vitro; conditions: CHO cells expressing human cloned ERG
Chain of hERG (KCNH2) potassium channel (Q12809 whole entry): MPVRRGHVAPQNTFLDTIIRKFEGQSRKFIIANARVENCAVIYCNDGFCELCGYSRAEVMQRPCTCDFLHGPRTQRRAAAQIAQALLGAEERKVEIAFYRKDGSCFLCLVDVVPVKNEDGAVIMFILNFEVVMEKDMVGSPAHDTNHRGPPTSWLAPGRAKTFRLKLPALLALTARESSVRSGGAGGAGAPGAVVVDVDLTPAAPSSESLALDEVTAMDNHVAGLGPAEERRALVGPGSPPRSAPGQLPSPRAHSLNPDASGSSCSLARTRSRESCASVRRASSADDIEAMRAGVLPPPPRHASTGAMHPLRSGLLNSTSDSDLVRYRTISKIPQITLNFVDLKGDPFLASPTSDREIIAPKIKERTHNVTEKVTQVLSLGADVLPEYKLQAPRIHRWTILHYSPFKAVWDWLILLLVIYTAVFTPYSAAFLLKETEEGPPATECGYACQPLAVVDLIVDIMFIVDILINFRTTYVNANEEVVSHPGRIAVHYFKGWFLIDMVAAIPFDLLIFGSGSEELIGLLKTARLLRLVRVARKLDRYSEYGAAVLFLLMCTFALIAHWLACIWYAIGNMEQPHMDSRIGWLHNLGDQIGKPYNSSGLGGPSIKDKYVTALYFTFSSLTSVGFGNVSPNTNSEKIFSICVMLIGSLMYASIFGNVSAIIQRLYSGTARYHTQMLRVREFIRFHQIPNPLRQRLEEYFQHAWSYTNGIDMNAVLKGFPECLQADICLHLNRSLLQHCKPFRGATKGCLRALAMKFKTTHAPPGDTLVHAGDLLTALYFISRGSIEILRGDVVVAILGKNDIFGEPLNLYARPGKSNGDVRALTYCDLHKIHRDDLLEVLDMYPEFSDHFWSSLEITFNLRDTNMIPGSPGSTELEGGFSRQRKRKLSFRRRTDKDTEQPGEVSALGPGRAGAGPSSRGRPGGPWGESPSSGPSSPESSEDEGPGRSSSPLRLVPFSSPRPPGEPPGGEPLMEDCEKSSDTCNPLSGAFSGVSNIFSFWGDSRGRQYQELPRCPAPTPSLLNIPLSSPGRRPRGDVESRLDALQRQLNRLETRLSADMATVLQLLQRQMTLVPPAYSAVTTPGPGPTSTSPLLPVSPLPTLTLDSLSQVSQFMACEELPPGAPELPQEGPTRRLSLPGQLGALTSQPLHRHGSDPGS

D(2) dopamine receptor [9] = molecular target: T4, D(2) dopamine receptor; assay: biochemical
[10] = molecular target: T5, 5-hydroxytryptamine receptor 6 (Homo sapiens, UniProt P50406); assay: Agonist activity at human recombinant 5-HT6 receptor expressed in CHO-K1 cells by luminescence analysis; format: cell-based
T5 sequence (P50406 whole entry): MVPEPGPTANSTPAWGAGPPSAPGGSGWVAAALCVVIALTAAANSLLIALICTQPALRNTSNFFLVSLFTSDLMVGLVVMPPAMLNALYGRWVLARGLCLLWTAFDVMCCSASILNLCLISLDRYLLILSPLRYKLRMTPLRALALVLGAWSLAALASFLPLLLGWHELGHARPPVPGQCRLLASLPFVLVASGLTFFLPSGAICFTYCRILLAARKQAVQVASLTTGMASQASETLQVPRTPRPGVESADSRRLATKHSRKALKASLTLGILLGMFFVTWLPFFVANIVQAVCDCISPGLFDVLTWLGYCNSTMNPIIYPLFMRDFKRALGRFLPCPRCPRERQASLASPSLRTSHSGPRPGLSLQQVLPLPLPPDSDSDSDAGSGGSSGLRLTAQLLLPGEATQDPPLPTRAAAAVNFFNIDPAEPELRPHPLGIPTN

[11] = molecular target: T3, 5-hydroxytryptamine receptor 2A; assay: Agonist activity at human recombinant 5-HT2A receptor expressed in CHO-K1 cells by luminescence analysis; format: cell-based
[12] = molecular target: T5, 5-hydroxytryptamine receptor 6; assay: Antagonist activity at human recombinant 5-HT6 receptor expressed in CHO-K1 cells assessed as inhibition of serotonin-induced response treated 15 to 30 mins before agonist challenge by luminescence analysis; format: cell-based
[13] = molecular target: T5, 5-hydroxytryptamine receptor 6; assay: biochemical
[14] = molecular target: T1, 5-hydroxytryptamine receptor 7; assay: biochemical; format: cell-based, CHO-K1
[15] = molecular target: 5-hydroxytryptamine receptor 2C (Homo sapiens, UniProt P28335); assay: biochemical
Chain of 5-hydroxytryptamine receptor 2C (P28335 whole entry): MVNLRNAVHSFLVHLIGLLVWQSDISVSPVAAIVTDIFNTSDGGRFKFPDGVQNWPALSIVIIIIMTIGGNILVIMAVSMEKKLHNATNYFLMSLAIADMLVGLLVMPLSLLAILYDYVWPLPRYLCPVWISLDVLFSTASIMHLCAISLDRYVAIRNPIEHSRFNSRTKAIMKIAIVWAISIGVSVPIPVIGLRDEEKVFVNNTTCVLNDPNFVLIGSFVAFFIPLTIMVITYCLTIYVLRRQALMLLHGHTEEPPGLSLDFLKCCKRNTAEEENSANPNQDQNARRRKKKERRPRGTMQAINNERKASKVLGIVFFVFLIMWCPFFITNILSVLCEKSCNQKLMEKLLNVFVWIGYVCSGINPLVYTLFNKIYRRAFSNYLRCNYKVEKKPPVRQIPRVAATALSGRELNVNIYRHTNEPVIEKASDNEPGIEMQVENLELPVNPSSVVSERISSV

[16] = molecular target: T5, 5-hydroxytryptamine receptor 6
[17] = molecular target: Muscarinic acetylcholine receptor M1 (Homo sapiens, UniProt P11229); assay: biochemical; format: cell-based, CHO
Rattus norvegicus [18] = assay: Antidepressant-like activity in Wistar rat assessed as decrease in immobility time at 0.3 to 3 mg/kg, po after 60 mins by forced swimming test; format: functional; conditions: dose mg/kg 0.3-3
[19] = molecular target: T1, 5-hydroxytryptamine receptor 7; assay: biochemical
[20] = molecular target: T5, 5-hydroxytryptamine receptor 6; assay: biochemical; remark: listed apart in the source
[21] = molecular target: 5-hydroxytryptamine receptor 1A (Homo sapiens, UniProt P08908); assay: biochemical
[22] = molecular target: Muscarinic acetylcholine receptor M5 (Homo sapiens) (UniProt P08912); conditions: CHO, 1 uM
Histamine H1 receptor = Histamine H1 receptor (Homo sapiens, UniProt P35367); assay: biochemical; format: cell-based, HEK293
Chain of Histamine H1 receptor (P35367 whole entry): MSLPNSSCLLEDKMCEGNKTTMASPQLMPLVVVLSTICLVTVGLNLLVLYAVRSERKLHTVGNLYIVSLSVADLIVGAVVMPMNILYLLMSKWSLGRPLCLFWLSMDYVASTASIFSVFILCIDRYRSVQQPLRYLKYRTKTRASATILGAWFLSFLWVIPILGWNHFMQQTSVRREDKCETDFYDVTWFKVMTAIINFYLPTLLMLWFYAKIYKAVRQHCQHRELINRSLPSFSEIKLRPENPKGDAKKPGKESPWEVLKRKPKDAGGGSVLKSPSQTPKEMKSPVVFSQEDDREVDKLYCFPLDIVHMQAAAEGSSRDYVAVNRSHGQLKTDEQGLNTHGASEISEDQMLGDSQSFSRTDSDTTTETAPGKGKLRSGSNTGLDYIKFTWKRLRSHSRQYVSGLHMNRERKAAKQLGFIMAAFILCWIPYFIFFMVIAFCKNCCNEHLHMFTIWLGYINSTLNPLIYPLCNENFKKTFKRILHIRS

[23] = molecular target: Alpha-2C adrenergic receptor (Homo sapiens, UniProt P18825); assay: biochemical
Rattus norvegicus [24] = assay: Antipsychotic-like activity in po dosed Wistar rat assessed as inhibition of MK-801-induced hyperlocomotion administered 45 mins prior to MK-801 challenge measured 60 mins post-drug administration; format: functional; conditions: read-out: MED
[25] = molecular target: Muscarinic acetylcholine receptor M4 (Homo sapiens, UniProt P08173); assay: biochemical
D(1A) dopamine receptor = D(1A) dopamine receptor (Homo sapiens, UniProt P21728); assay: biochemical
[26] = molecular target: Muscarinic acetylcholine receptor M2 (Homo sapiens) (UniProt P08172); assay: Displacement of [3H]AF-DX384 from human recombinant M2 receptor expressed in CHO cells at 1 uM; format: cell-based
Chain of Muscarinic acetylcholine receptor M2 (Homo sapiens) (P08172 whole entry): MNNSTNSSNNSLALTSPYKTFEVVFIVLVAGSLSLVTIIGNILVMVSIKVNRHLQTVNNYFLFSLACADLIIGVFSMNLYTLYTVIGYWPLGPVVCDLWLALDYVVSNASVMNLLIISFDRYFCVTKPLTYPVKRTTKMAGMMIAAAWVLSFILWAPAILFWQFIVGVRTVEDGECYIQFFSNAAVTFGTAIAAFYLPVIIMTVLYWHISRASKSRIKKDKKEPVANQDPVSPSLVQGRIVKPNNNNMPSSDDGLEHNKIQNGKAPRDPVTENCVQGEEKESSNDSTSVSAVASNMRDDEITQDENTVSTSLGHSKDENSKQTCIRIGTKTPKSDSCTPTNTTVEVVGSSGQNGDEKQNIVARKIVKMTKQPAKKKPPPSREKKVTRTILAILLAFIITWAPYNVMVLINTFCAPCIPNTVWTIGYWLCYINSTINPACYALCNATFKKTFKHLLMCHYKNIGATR

[27] = molecular target: Alpha-1A adrenergic receptor (Homo sapiens, UniProt P35348); assay: biochemical
D(3) dopamine receptor = D(3) dopamine receptor (Homo sapiens, UniProt P35462); assay: Displacement of [3H]methylspiperone from human recombinant D3 receptor expressed in CHO cells; format: cell-based
[28] = molecular target: Muscarinic acetylcholine receptor M4 (Homo sapiens) (UniProt P08173); assay: Displacement of [3H]4-DAMP from human recombinant M4 receptor expressed in CHO cells at 1 uM; format: cell-based
D(4) dopamine receptor = D(4) dopamine receptor (Homo sapiens, UniProt P21917); assay: Displacement of [3H]methylspiperone from human recombinant D4 receptor expressed in CHO cells; format: cell-based
[29] = molecular target: Sodium-dependent serotonin transporter (Homo sapiens, UniProt P31645); assay: biochemical
[30] = molecular target: Muscarinic acetylcholine receptor M2 (Homo sapiens, UniProt P08172); assay: biochemical
Chain of Muscarinic acetylcholine receptor M2 (P08172 whole entry): as above

[31] = molecular target: T6, Muscarinic acetylcholine receptor M3 (Homo sapiens, UniProt P20309); assay: biochemical
[32] = molecular target: Alpha-1A adrenergic receptor (Homo sapiens) (UniProt P35348); assay: Antagonist activity at human recombinant alpha1A adrenoceptor assessed as inhibition of epinephrine-induced intracellular Ca2+ release; format: functional, cell-based
Rattus norvegicus [33] = assay: Toxicity in Wistar rat assessed as spontaneous locomotor activity up to 100 mg/kg, po measured after 15 mins; format: organism-based; design: dose 100 mg/kg, route oral; conditions: in vivo, 0.25 h
D(2) dopamine receptor [34] = molecular target: T4, D(2) dopamine receptor; assay: biochemical; remark: listed apart in the source
[35] = molecular target: T3, 5-hydroxytryptamine receptor 2A; assay: biochemical
[36] = molecular target: T6, Muscarinic acetylcholine receptor M3; conditions: CHO, 1 uM
[37] = molecular target: T3, 5-hydroxytryptamine receptor 2A; assay: Antagonist activity at human recombinant 5-HT2A receptor assessed as inhibition of serotonin-induced inositol phosphate accumulation; format: functional
Rattus norvegicus [38] = assay: Antipsychotic-like activity in po dosed Wistar rat assessed as inhibition of DOI-induced head twitches measured after 60 mins; format: functional; conditions: 1 h, read-out: MED
Rattus norvegicus [39] = assay: Induction of catalepsy in Wistar rat up to 100 mg/kg, po by bar test; format: organism-based; design: dose 100 mg/kg, route oral; conditions: in vivo

SMILES: C[N+]1(C)CCC(OC(=O)C(c2ccccc2)c2ccccc2)CC1 [4-DAMP]
- Ki [1]: 0.48 nM

SMILES: O=S(=O)(NCCCN1CCC(c2noc3cc(F)ccc23)CC1)c1ccc(Cl)c(Cl)c1
- Kb [2]: 2.1 nM
- inhibition [3]: -3%
- Ki [4]: 2.2 nM
- Activity [5]: inactive
- Kb [6]: 23 nM
- Activity (D(2) dopamine receptor [7]): inactive
- inhibition at 1 µM [8]: 69%
- Ki (D(2) dopamine receptor [9]): 14 nM
- Activity [10]: inactive
- Activity [11]: inactive
- Kb [12]: 12 nM
- Ki [13]: 7.1 nM
- Ki [14]: 1.2 nM

SMILES: COc1cc(OC)c(C(=O)CCCCN2CCC3(CC2)NC(=O)NC3=O)cc1NS(=O)(=O)c1ccc(C(F)(F)F)cc1 [RS-102,221]
- Ki [15]: 0.6 nM

SMILES: O=S(=O)(NCCCCN1CCC(c2noc3cc(F)ccc23)CC1)c1cc2ccccc2s1
- Kb [16]: 16 nM
- Ki [17]: > 1000 nM
- Ki [1]: > 1000 nM
- Kb [2]: 7.8 nM
- inhibition (INH) (Rattus norvegicus [18]): 20%
- Ki [19]: 1.9 nM
- inhibition [3]: 21%
- Ki [4]: 0.6 nM
- Activity [5]: inactive
- Kb [6]: 8.8 nM
- Ki [20]: 4.1 nM
- Activity (D(2) dopamine receptor [7]): inactive
- Ki [21]: 110 nM
- inhibition [22]: < 40%
- Ki [15]: 540 nM
- Ki (Histamine H1 receptor): 69 nM
- Ki [23]: 1.9 nM
- Ki (D(2) dopamine receptor [9]): 2 nM
- Activity [10]: inactive
- minimal effective dose (Rattus norvegicus [24]): 10 mg/kg
- Ki [25]: > 1000 nM
- Activity [11]: inactive
- Ki (D(1A) dopamine receptor): 3.3 nM
- inhibition [26]: < 40%
- Ki [27]: 0.8 nM
- Ki (D(3) dopamine receptor): 1.1 nM
- Kb [12]: 9.9 nM
- inhibition [28]: < 40%
- Ki (D(4) dopamine receptor): 14 nM
- Ki [13]: 6.5 nM
- IC50 [29]: > 1000 nM
- Ki [30]: > 1000 nM
- Ki [31]: > 1000 nM
- Kb [32]: 1.8 nM
- Activity (Rattus norvegicus [33]): Non-toxic
- Ki (D(2) dopamine receptor [34]): 1.8 nM
- Ki [14]: 1.6 nM
- Ki [35]: 0.5 nM
- inhibition [36]: < 40%
- Kb [37]: 4.8 nM
- minimal effective dose (Rattus norvegicus [38]): 3 mg/kg
- Activity (Rattus norvegicus [39]): Non-toxic

SMILES: O=S(=O)(NCCCCN1CCC(c2noc3cc(F)ccc23)CC1)c1ccc2ccccc2c1
- Kb [2]: 8.8 nM
- inhibition [3]: 0%
- Ki [4]: 1.7 nM
- Activity [5]: inactive
- Kb [6]: 14 nM
- Activity (D(2) dopamine receptor [7]): inactive
- inhibition at 1 µM [8]: 30%
- Ki (D(2) dopamine receptor [9]): 1.1 nM
- Activity [10]: inactive
- Activity [11]: inactive
- Kb [12]: 3.8 nM
- Ki [13]: 2.4 nM
- Ki [14]: 1.4 nM

SMILES: O=S(=O)(NCCCN1CCC(c2noc3cc(F)ccc23)CC1)c1ccc(F)c(Cl)c1
- Kb [2]: 0.8 nM
- inhibition [3]: -8%
- Ki [4]: 1.5 nM
- Activity [5]: inactive
- Kb [6]: 7 nM
- Activity (D(2) dopamine receptor [7]): inactive
- inhibition at 1 µM [8]: 32%
- Ki (D(2) dopamine receptor [9]): 3.7 nM
- Activity [10]: inactive
- Activity [11]: inactive
- Kb [12]: 7.4 nM
- Ki [13]: 1.6 nM
- Ki [14]: 0.9 nM

Continued, in another order:

- Kb [2]: 44 nM
- inhibition [3]: -5%
- Ki [4]: 1.5 nM
- Activity [5]: inactive
- Kb [6]: 110 nM
- Activity (D(2) dopamine receptor [7]): inactive
- Ki (D(2) dopamine receptor [9]): 0.9 nM
- Activity [10]: inactive
- Activity [11]: inactive
- Kb [12]: 7.6 nM
- Ki [13]: 5 nM
- Ki [14]: 1.8 nM
SMILES: O=S(=O)(NCCCCN1CCN(c2nsc3ccccc23)CC1)c1ccc2ccccc2c1
- inhibition at 1 µM [8]: 14%

- Kb [2]: 2.2 nM
- inhibition [3]: 22%
- Ki [4]: 0.7 nM
- Activity [5]: inactive
- Kb [6]: 5 nM
- Activity (D(2) dopamine receptor [7]): inactive
- Ki (D(2) dopamine receptor [9]): 1.9 nM
- Activity [10]: inactive
- Activity [11]: inactive
- Kb [12]: 14 nM
- Ki [13]: 3.4 nM
- Ki [14]: 0.2 nM
SMILES: Cc1c(S(=O)(=O)NCCCCN2CCC(c3noc4cc(F)ccc34)CC2)sc2ccc(F)cc12
- inhibition at 1 µM [8]: 14%

- Kb [2]: 3 nM
- inhibition [3]: 0%
- Ki [4]: 0.6 nM
- Activity [5]: inactive
- Kb [6]: 76 nM
- Activity (D(2) dopamine receptor [7]): inactive
- Ki (D(2) dopamine receptor [9]): 3 nM
- Activity [10]: inactive
- Activity [11]: inactive
- Kb [12]: 17 nM
- Ki [13]: 8.8 nM
- Ki [14]: 0.8 nM
SMILES: O=S(=O)(NCCCCN1CCC(c2noc3cc(F)ccc23)CC1)c1cccc2ccccc12
- inhibition at 1 µM [8]: 24%

- Kb [2]: 2.8 nM
- inhibition [3]: 23%
- Ki [4]: 0.8 nM
- Activity [5]: inactive
- Kb [6]: 55 nM
- Activity (D(2) dopamine receptor [7]): inactive
- Ki (D(2) dopamine receptor [9]): 1.2 nM
- Activity [10]: inactive
- Activity [11]: inactive
- Kb [12]: 21 nM
- Ki [13]: 3.3 nM
- Ki [14]: 1.3 nM
SMILES: O=S(=O)(NCCCCN1CCC(c2noc3cc(F)ccc23)CC1)c1cc2ccc(Cl)cc2s1
- inhibition at 1 µM [8]: 18%
